Data from publication PMC10709440, “High-throughput ligand profile characterization in novel cell lines expressing seven heterologous insect olfactory receptors for the detection of volatile plant biomarkers” (Scientific Reports, 2023).
Like-named read-outs stand apart in the source and are kept apart here.

Columns and labels:
[1] = target: T1, Drosophila OR98a (Drosophila melanogaster, UniProt Q9VAZ3); assay: Calcium ion fluorescence (GCaMP6) assay, OR98a stable HEK293 cell line; assay type: cell-based; set-up: key to DF norm AVERAGE OR98a: VOC ∆F divided by the plate's mean ∆F response to 50 µM VUAA1; settings: for OR98a Average response (VUAA1-normalized): 50 μM VUAA1 = 1; for Average response: OR98a cell line, average of biological replicates, fraction of VUAA1 response; for DF norm AVERAGE OR98a: threshold 0.05, below shown as 0
T1 construct: expressed in transfected cells
T1 sequence (Q9VAZ3 1-397): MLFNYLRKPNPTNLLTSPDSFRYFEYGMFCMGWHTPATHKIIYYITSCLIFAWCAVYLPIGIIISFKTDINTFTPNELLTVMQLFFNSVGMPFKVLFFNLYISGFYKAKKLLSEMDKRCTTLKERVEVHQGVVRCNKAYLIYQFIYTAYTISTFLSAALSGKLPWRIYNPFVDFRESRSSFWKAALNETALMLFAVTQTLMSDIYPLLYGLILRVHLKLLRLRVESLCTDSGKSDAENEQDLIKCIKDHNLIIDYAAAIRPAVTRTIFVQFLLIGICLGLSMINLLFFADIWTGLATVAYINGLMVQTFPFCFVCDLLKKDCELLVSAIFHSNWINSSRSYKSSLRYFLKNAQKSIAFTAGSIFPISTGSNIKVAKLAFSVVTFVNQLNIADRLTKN
T1 sequence (Q9VNB5 1-486 partner): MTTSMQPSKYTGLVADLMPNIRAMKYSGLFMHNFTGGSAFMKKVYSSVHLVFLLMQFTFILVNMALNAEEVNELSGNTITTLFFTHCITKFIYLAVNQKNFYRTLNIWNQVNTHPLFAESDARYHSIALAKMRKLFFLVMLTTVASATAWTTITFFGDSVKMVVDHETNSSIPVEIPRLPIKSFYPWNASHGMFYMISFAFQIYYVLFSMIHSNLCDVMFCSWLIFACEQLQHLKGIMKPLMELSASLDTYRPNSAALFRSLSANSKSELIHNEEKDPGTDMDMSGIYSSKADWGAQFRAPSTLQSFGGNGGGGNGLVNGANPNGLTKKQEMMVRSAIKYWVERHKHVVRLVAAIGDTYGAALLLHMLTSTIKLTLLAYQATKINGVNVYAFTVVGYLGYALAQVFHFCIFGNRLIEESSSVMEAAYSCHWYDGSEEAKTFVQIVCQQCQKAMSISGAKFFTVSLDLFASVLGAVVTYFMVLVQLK
How it was run: (§1)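 HEK293 lines stably expressing each Drosophila OR with GCaMP6, doxycycline-induced (1 μg/mL) 48 or 72 h. Fluorescence recorded 5 s baseline then 30 s after VOC injection at pH 7.3; ΔF=(FMAX−F0)/F0, normalized to 50 µM VUAA1 response per line, triplicate wells averaged; concentration series 0.01–100 μM.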

[2] = target: T2, Drosophila OR49b (Drosophila melanogaster, UniProt Q9V6H2); assay: cell-based; settings: for Average response: OR49b cell line, mean of biological replicates; for DF norm AVERAGE OR49b: threshold 0.05, below shown as 0
T2 construct: expressed in transfected cells
T2 sequence (Q9V6H2 1-375): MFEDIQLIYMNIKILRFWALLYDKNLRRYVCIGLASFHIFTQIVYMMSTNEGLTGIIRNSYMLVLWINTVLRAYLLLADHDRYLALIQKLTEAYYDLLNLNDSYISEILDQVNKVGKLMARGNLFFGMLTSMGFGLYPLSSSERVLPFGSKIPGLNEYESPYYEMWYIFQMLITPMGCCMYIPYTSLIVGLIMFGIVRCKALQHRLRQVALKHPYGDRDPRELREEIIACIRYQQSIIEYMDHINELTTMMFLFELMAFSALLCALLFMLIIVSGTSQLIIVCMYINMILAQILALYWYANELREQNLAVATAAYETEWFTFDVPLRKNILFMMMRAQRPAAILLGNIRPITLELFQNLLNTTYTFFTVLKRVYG
T2 sequence (Q9VNB5 1-486 partner): T1 sequence (Q9VNB5 1-486 partner)
How it was run: as §1

[3] = ligand concentration 1 (unit not given)
[4] = ligand concentration 10 (unit not given)
[5] = ligand concentration 100 (unit not given)
[6] = HEK293, read-out: Average response
[7] = HEK293, read-out: OR98a Average response (VUAA1-normalized)
[8] = HEK293, read-out: OR98a response (VUAA1-normalized response)
[9] = HEK293, VOC concentration 1 μM, read-out: OR49b response (VUAA1-normalized response)
[10] = HEK293, VOC concentration 10 μM, read-out: OR49b response (VUAA1-normalized response)
[11] = HEK293, VOC concentration 100 μM, read-out: OR49b response (VUAA1-normalized response)
[12] = HEK293, read-out: OR49b Average response (VUAA1-normalized)
[13] = HEK293, read-out: OR49b response (VUAA1-normalized response)

SMILES | DF norm AVERAGE OR98a [1, 3] | DF norm AVERAGE OR98a [1, 4] | DF norm AVERAGE OR98a [1, 5] | Average response ([2]; odorant cc. 1 µM) | Average response ([2]; odorant cc. 10 µM) | Average response ([2]; odorant cc. 100 µM) | DF norm AVERAGE OR49b [2, 3] | DF norm AVERAGE OR49b [2, 4] | DF norm AVERAGE OR49b [2, 5] | activation at 1 µM [1, 6] [%] | activation at 10 µM [1, 6] [%] | activation at 100 µM [1, 6] [%] | activation at 1 µM [1, 8] [%] | activation at 10 µM [1, 8] [%] | activation at 100 µM [1, 8] [%] | activation at 1 µM [2, 9] [%] | activation at 10 µM [2, 10] [%] | activation at 100 µM [2, 11] [%] | further results
CC(C)=CCC/C(C)=C/CC/C(C)=C/CO [e,e-farnesol] | 0 | 0.07127 | 0.09839 | 0.00 | 0.06 | 0.00 | 0 | 0.06141 | 0 | – | – | – | – | – | – | – | – | – | OR98a Average response (VUAA1-normalized) ([1]; 1 μM VOC): 0.02; OR98a Average response (VUAA1-normalized) ([1]; 10 μM VOC): 0.07; OR98a Average response (VUAA1-normalized) ([1]; 100 μM VOC): 0.10; OR98a response (VUAA1-normalized response) ([1]; VOC concentration 1 μM): 0.00; OR98a response (VUAA1-normalized response) ([1]; VOC concentration 10 μM): 0.07; OR98a response (VUAA1-normalized response) ([1]; VOC concentration 100 μM): 0.10; Average response ([1]; cc. 1 µM): 0.017; Average response ([1]; cc. 10 µM): 0.07; Average response ([1]; cc. 100 µM): 0.10; OR49b response (VUAA1-normalized response) ([2]; VOC concentration 1 μM): 0.00; OR49b response (VUAA1-normalized response) ([2]; VOC concentration 10 μM): 0.06; OR49b response (VUAA1-normalized response) ([2]; VOC concentration 100 μM): 0.00
CCOC(=O)c1ccccc1 [ethyl benzoate] | 0 | 0 | 0.2048 | 0.06 | 0.0464 | 0.0169 | 0.05937 | 0 | 0 | 3 | 0 | 20 | 0 | 0 | 20 | 6 | 0 | 0 | activation at 1 µM [1, 7]: 3%; activation at 10 µM [1, 7]: 0%; activation at 100 µM [1, 7]: 20%
CCCC(=O)OCC [ethyl butyrate] | 0 | 0 | 0.06596 | 0.00 | 0.00 | 0.00 | 0 | 0 | 0 | 3.54 | 0 | 6.6 | 0 | 0 | 6.6 | 0 | 0 | 0 | –
CCCCCC(=O)OCC [ethyl hexanoate] | 0 | 0.1164 | 0 | 0.00 | 0.00 | 0.00 | 0 | 0 | 0 | 5 | 12 | 3.29 | 0 | 12 | 0 | 0 | 0 | 0 | –
CCOC(=O)CC [ethyl propionate] | 0 | 0 | 0 | 0.00 | 0.00 | 0.0428 | 0 | 0 | 0 | 2 | 2 | 1.5 | 0 | 0 | 0 | 0 | 0 | 0 | –
CCc1ccccc1 [ethylbenzene] | 0 | 0.1169 | 0 | 0.05 | 0.09 | 0.33 | 0.05039 | 0.08967 | 0.3273 | 0 | 12 | 0 | 0 | 12 | 0 | – | – | – | activation at 1 µM [2, 12]: 5%; activation at 10 µM [2, 12]: 9%; activation at 100 µM [2, 12]: 33%; activation at 1 µM [2, 13]: 5%; activation at 10 µM [2, 13]: 9%; activation at 100 µM [2, 13]: 33%
C=CCc1ccc(O)c(OC)c1 [eugenol] | 0 | 0 | 0 | 0.05 | 0.00 | 0.00 | 0 | 0 | 0 | 3.37 | 0 | 0 | 0 | 0 | 0 | 0 | 0 | 0 | –
CC(=O)OCC(C)C [isobutyl acetate] | 0 | 0 | 0.0656 | 0.05 | 0.0342 | 0.00 | 0.05093 | 0 | 0 | 1.85 | 0 | 6.56 | 0 | 0 | 6.56 | 5 | 0 | 0 | –
CC(=O)OCCC(C)C [isopentyl acetate] | 0 | 0 | 0.3069 | 0.00 | 0.00 | 0.15 | 0 | 0 | 0.1516 | 2.74 | 2.22 | 31 | 0 | 0 | 31 | 0 | 0 | 15 | activation at 1 µM [1, 7]: 3%; activation at 10 µM [1, 7]: 2%; activation at 100 µM [1, 7]: 31%; activation at 1 µM ([2]; HEK293, 1 μM VOC, 50 μM VUAA1 = 1, read-out: OR49b Average response (VUAA1-normalized)): 0%; activation at 10 µM ([2]; HEK293, 10 μM VOC, 50 μM VUAA1 = 1, read-out: OR49b Average response (VUAA1-normalized)): 0%; activation at 100 µM ([2]; HEK293, 100 μM VOC, 50 μM VUAA1 = 1, read-out: OR49b Average response (VUAA1-normalized)): 15%
